ChEMBL document CHEMBL1201862, “PubChem BioAssay data set” (2004)
The source made the active and inactive calls.

Legend:
Estrogen receptor beta = Estrogen receptor beta (Homo sapiens, UniProt Q92731);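 note: recombinant ER-beta bound to coactivator SRC1 peptide in presence of estradiol agonist; inhibitors block coactivator peptide binding and lower the FRET signal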
[1] = Late stage counterscreen for inhibitors of Trypanosoma brucei methionyl tRNA synthetase (MetRS): Luminescence-based cell-based high throughput dose response assay to identify compounds that are cytotoxic to Jurkat human T lymphocyte cells.; format: functional
[2] = target: E3 ubiquitin-protein ligase Mdm2 (Homo sapiens, UniProt Q00987); assay: MDM2-luc reporter signal enhancers, multi-concentration potency testing, MDM2 ubiquitin-protein ligase inhibitor program, whole-cell format, luminescence detection, 384-well microplate (AID 1394); format: functional;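 note: MDM2 E3 inhibitors raise luminescence so EC50 is for signal enhancement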
[3] = target: Luciferin 4-monooxygenase (Photinus pyralis, UniProt P08659); assay: inhibition of purified Photinus pyralis luciferase – biochemical, luminescence, dose response (AID 1891)
[4] = Luminescence Cell-Based Dose Confirmation HTS to Identify Inhibitors of Platelet Dense Granule Release. [Related pubchem assays: 1663 (Primary HTS), 1678 (Summary of Project)]; format: functional
[5] = target: T1, Methionyl-tRNA synthetase, putative (Trypanosoma brucei brucei, UniProt Q38C91); format: functional, Trypanosoma brucei brucei strain 927/4 GUTat10.1
T1 sequence (Q38C91 whole entry): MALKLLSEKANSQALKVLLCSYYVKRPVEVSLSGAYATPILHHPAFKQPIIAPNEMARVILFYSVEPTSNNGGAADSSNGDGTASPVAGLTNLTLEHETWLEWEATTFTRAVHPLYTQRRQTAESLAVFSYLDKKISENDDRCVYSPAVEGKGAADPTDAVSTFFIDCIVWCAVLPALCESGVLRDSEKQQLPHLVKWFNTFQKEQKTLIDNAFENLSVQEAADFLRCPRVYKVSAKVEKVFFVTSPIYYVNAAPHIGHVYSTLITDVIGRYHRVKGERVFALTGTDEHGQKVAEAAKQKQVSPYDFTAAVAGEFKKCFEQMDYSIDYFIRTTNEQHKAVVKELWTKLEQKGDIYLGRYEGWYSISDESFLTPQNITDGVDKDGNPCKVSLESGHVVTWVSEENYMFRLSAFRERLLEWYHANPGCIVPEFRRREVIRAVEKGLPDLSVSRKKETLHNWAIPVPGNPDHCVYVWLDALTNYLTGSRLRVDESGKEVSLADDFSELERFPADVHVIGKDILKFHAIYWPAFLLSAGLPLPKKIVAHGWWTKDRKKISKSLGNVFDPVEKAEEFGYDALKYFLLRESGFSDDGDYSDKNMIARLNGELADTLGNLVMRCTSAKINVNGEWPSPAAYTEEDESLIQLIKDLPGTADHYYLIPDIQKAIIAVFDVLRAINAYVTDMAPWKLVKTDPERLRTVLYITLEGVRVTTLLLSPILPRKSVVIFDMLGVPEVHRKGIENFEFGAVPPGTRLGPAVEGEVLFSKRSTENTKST

[6] = target: T1, Methionyl-tRNA synthetase, putative; format: functional, Trypanosoma brucei brucei strain 927/4 GUTat10.1; remark: listed apart in the source
[7] = Counterscreen for inhibitors of Trypanosoma brucei methionyl tRNA synthetase (MetRS): Luminescence-based cell-based high throughput dose response assay to identify compounds that are cytotoxic to Jurkat human T lymphocyte cells.; format: functional
[8] = potency of ADAM10 substrate cleavage blockers – biochemical, QFRET, dose response (AID 743254);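 note: ADAM10 enzyme with the DM2 quenched FRET peptide as substrate; EDANS fluorescence gain as the protease cuts the substrate; inhibitor potency against ADAM10 proteolytic activity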
[9] = target: Disintegrin and metalloproteinase domain-containing protein 17 (Homo sapiens, UniProt P78536); assay: inhibition of ADAM17 substrate cleavage – biochemical, quenched FRET substrate, counter-screen for ADAM10 exosite inhibitor project, dose response (AID 743253)
HEK293 = assay: EBV LMP1 TES2 canonical NF-kB signalling blockers – cell-based, HEK293, luciferase, cherry-pick, dose response (AID 588343); format: functional; details: Homo sapiens
[10] = blockers of bursicon-stimulated LGR2 cAMP reporter – cell-based, HEK293, CRE-luciferase reporter, cherry pick, set 2, dose response (AID 743343); format: functional;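 note: transfected cells were stimulated with diluted bursicon conditioned medium after compound addition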
[11] = blockers of HIV-1 envelope-mediated cell-cell fusion – cherry-pick, dose response (AID 652057); format: functional, cell-based
[12] = A549 cell cytotoxicity, dose response, cytotoxicity control, plate reader, cherry-pick, antagonist series (AID 743412); format: functional, cell-based
[13] = off-target signal loss in HeLa-CEM21 co-culture – HeLa F-luc CTL cells, cherry-picked, counter-screen for HIV-1 Env fusion inhibitor project, dose response (AID 652040); format: functional, cell-based;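 note: potency for signal decrease marking cytotoxic or nonspecific inhibition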
[14] = viability loss in CEM21 cells – cell-based, CellTiter-Glo luminescence, cherry-picked, cytotoxicity control for viral fusion inhibitor project, dose response (AID 652042); format: functional;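 note: potency for signal decrease meaning cytotoxicity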
[15] = general cell-killing toxicity readout – plate reader, dry powder samples, cytotoxicity control for PAX8 inhibitor project, dose response (AID 743021); format: functional, cell-based
[16] = target: T2, Corticotropin-releasing factor receptor 2/Corticotropin-releasing factor-binding protein (Homo sapiens, UniProt P24387+Q13324); assay: activators of CRF receptor 2 with binding protein – uHTS hits, confirmation (AID 602473); format: functional; details: read-out: EC50_Mean
T2 sequence (Q13324 whole entry): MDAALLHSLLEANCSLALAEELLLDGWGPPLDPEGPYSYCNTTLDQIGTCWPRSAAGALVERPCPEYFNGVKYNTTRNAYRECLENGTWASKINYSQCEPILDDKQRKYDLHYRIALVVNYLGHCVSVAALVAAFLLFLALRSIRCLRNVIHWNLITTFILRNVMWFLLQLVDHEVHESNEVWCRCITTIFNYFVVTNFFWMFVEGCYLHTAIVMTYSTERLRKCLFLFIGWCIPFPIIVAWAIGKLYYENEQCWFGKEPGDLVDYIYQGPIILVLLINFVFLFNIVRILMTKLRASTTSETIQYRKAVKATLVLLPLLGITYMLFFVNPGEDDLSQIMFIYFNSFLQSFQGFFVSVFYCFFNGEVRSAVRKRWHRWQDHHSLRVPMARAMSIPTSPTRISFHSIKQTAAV
T2 sequence (P24387 whole entry): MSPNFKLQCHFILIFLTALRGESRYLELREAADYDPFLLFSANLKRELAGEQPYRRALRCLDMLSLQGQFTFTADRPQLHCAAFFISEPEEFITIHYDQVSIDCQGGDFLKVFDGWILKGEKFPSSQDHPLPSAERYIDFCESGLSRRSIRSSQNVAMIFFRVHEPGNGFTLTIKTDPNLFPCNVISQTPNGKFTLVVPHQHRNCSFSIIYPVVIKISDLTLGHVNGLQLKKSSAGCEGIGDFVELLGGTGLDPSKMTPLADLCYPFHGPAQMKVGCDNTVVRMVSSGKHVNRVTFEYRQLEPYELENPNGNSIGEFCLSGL

[17] = blockers of HIV-1 ZM109 envelope-driven cell-cell fusion – HeLa effector, CEM target cells, luciferase, cherry-pick, dose response (AID 652058); format: functional, cell-based;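 note: luciferase signal from HIV-1 Env mediated cell-cell fusion of effector and target cells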
Paired box protein Pax-8 = Paired box protein Pax-8 (Homo sapiens, UniProt Q06710); assay: PAX8 transcriptional activity inhibition in RMG-I – RMG-I cells, luciferase, cherry-pick, dose response (AID 687027); format: functional, cell-based;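 note: luciferase reporter driven by Pax8 target thyroperoxidase promoter measured by SteadyGlo luminescence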
[18] = toxicity toward HepG2 liver cells – cell-based, plate reader, cherry-pick, antagonist series, cytotoxicity control, dose response (AID 743416); format: functional
[19] = HIV-1 AD8 envelope cell-cell fusion blockers – cherry-pick, dose response (AID 652062); format: functional, cell-based;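 note: luciferase signal from cell-cell fusion driven by HIV-1 clade B AD8 Env; potency is for inhibitors of fusion seen as a drop in luminescence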
[20] = viability loss in HEK293 cells – cell-based, plate reader, cherry-picked samples, cytotoxicity control, dose response (AID 743446); format: functional
[21] = blockade of melanocortin 4 receptor signaling – cell-based, plate reader, cherry pick, counter-screen for LGR2 antagonist project, dose response (AID 743444); format: functional;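 note: transfected HEK 293 cells stimulated with alpha-MSH peptide; potency of inhibitors of the alpha-MSH evoked signal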

Disintegrin and metalloproteinase domain-containing protein 17, sequence (P78536 whole entry, the tested form may be a part): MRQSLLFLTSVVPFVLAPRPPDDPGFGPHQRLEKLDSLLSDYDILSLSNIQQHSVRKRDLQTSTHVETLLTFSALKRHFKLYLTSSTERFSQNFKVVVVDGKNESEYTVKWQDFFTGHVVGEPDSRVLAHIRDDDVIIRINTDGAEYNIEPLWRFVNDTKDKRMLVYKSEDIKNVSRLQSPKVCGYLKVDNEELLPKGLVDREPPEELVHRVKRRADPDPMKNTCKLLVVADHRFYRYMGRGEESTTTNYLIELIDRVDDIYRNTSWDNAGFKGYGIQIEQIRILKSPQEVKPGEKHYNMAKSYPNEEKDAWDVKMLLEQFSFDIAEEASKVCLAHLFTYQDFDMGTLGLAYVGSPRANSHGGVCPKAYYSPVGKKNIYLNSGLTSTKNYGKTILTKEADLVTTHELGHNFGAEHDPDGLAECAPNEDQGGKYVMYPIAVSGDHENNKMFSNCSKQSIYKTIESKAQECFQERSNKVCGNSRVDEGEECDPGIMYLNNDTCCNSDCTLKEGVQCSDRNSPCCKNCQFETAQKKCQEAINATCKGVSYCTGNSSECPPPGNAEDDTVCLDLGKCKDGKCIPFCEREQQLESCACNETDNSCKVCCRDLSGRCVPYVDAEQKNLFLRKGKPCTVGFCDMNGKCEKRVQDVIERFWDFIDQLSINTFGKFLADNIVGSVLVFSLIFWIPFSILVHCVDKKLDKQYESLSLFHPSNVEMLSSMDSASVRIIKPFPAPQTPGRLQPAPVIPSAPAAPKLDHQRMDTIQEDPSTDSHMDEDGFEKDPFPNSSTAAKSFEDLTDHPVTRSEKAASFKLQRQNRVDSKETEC
E3 ubiquitin-protein ligase Mdm2, sequence (Q00987 whole entry): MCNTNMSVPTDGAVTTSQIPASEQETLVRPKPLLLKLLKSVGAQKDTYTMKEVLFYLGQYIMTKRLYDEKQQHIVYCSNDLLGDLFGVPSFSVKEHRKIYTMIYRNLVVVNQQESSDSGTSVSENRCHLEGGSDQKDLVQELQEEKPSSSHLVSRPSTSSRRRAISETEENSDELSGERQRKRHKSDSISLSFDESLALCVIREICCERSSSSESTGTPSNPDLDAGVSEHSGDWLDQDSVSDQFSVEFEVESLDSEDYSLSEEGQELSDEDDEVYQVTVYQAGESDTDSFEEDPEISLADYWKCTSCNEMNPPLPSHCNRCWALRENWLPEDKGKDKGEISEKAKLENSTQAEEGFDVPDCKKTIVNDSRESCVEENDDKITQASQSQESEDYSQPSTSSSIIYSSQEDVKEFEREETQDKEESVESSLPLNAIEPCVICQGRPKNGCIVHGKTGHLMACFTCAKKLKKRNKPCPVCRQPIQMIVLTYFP
Estrogen receptor beta, sequence (Q92731 whole entry): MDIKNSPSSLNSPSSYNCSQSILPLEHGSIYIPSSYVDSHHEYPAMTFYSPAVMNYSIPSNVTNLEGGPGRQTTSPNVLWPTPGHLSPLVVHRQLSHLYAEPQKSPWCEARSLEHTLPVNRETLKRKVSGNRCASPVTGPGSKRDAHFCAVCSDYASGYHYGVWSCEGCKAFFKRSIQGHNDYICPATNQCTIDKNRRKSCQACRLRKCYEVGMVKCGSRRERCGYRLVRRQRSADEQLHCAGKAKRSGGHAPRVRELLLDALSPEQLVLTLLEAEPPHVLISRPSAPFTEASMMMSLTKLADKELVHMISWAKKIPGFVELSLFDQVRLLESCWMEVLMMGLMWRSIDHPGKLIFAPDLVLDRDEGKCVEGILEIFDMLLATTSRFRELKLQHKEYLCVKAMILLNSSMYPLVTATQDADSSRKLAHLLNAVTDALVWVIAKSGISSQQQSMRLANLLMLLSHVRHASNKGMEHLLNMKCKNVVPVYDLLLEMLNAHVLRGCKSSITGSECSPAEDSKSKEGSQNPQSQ
Paired box protein Pax-8, sequence (Q06710 whole entry): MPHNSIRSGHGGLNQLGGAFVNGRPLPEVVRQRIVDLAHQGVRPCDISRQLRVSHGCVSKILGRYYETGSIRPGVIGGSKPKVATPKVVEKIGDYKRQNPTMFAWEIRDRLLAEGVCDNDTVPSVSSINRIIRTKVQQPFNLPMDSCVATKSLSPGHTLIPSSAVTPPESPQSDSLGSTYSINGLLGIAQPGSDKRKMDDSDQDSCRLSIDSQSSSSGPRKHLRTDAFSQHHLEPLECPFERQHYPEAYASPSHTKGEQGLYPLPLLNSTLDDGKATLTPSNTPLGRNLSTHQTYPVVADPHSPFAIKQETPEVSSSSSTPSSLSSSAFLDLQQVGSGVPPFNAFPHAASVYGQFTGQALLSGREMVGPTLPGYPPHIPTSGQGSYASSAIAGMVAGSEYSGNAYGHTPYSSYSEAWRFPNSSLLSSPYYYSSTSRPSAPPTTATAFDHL
Luciferin 4-monooxygenase, sequence (P08659 whole entry): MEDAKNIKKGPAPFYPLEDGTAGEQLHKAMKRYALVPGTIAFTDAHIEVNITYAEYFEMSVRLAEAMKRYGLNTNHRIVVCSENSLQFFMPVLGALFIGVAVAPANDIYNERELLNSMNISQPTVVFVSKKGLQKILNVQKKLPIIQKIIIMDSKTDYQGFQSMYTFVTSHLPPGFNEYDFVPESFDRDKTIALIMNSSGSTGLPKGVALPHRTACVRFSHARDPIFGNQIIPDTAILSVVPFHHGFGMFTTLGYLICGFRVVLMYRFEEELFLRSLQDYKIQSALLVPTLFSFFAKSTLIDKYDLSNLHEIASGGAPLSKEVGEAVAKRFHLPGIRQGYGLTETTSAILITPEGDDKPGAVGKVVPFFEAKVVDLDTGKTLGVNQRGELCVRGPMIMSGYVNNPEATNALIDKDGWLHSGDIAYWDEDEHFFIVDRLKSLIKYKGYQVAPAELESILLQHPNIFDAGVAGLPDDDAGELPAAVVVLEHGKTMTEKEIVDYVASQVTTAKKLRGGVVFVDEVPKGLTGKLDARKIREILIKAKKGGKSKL

O=C(OCC(=O)N1CCCC1)c1cncc(Br)c1
IC50 (Estrogen receptor beta): > 50 µM (not active)

CC(C)(C)[C@@H]1C=C(C(=O)NCc2nc3ccccc3[nH]2)O[C@H](OCc2ccc(CO)cc2)C1
IC50 [1]: > 83.3 µM (inactive)

O=C(Cc1ccc(-n2c(=O)c3ccccc3n(Cc3ccccc3Cl)c2=O)cc1)NCC1CCCO1 (centres undefined)
EC50 [2]: 8.14 µM (not active) | EC50 [3]: > 112 µM (not active) | EC50 [4]: > 112 µM (not active)

COc1ccc2[nH]c3nc(SCC(=O)Nc4ccc5c(c4)OCO5)nnc3c2c1
IC50 [1]: 36.6 µM (inactive) | IC50 [5]: 0.489 µM (active) | IC50 [6]: 1.33 µM (active) | IC50 [7]: 24.5 µM (inactive)

CC(C)(C)c1ccc(-c2nnc(SCC(=O)Nc3ccc(S(=O)(=O)Nc4nccs4)cc3)n2-c2ccc(Cl)cc2)cc1
IC50 [8]: 10.6 µM (inactive) | IC50 [9]: > 69.5 µM (inactive)

Cc1ccc(C(=S)NCS(=O)(=O)c2ccc(C)cc2)cc1
IC50 [9]: 14.5 µM (inactive)

CCCCn1c(SCc2nc(N)nc(Nc3ccccc3C)n2)nc2ccccc2c1=O
IC50 [8]: > 69.5 µM (inactive) | IC50 [9]: > 69.5 µM (inactive)

COc1ccc2[nH]c3c(N4CC(C)OC(C)C4)ncnc3c2c1 (centres undefined)
EC50 [2]: 7.39 µM (not active)

CC(C)CC(OC(=O)c1cccs1)C(=O)NCc1ccco1 (centres undefined)
IC50 (Estrogen receptor beta): > 50 µM (not active)

C(=Cc1cnc2ccccc2n1)c1ccc2c(c1)OCO2
AC50 (HEK293): 0.173 µM (active) | AC50 [10]: 0.263 µM (active) | AC50 [11]: 2.05 µM (active) | AC50 [12]: 10.7 µM (active) | AC50 [13]: 4.37 µM (active) | AC50 [14]: 42.1 µM (active) | AC50 [15]: 6.27 µM (active) | EC50 [16]: > 53 µM (inactive) | AC50 [17]: 13.5 µM (active) | AC50 (Paired box protein Pax-8): 2.92 µM (active) | AC50 [18]: 24.6 µM (active) | AC50 [19]: 3.91 µM (active) | AC50 [20]: 17 µM (active) | AC50 [21]: 0.25 µM (active)

O=C(Cn1cnc2ccccc21)Nc1cccc([N+](=O)[O-])c1
IC50 [1]: > 83.3 µM (inactive) | IC50 [5]: 1.76 µM (active) | IC50 [6]: 3.47 µM (active) | IC50 [7]: 83.1 µM (inactive)
